Reference: US4349545A, “Novel erythromycin a derivatives” (Roussel Uclaf, priority 1980, dated 1982)
Values after ≈ are worked out from the molar mass of the structure shown.

Tests used:
[1] = system: Staphylococcus aureus 1061; test: serial dilution liquid medium MIC, Staphylococcus aureus 1061 pen-sensibles; format: cell-based; conditions: 24 hours at 37° C., read-out: minimum inhibiting concentration (MIC)
Method: (§1) The method was a serial dilution of liquid medium test wherein a series of tubes were prepared containing the same amount of sterile nutritive medium and increasing amounts of the test product was distributed in each tube. The tubes were then seeded with a bacterial strain and incubated for 24 hours in an oven at 37° C. The degree of inhibition was determined by transillumination to determine the minimum inhibiting concentration (MIC) express in μg/ml and the results are reported in the following Tables.

[2] = system: Staphylococcus aureus UC 1128; test: serial dilution liquid medium MIC, Staphylococcus aureus UC 1128 pen-resistant; format: cell-based; conditions: UC1128; Staphylococcus aureus UC 1128 pen-resistant; 24 hours at 37° C.; read-out: minimum inhibiting concentration (MIC)
Method: as §1

[3] = system: Streptococcus faecalis 5432; test: serial dilution liquid medium MIC, Streptococcus faecalis 5432; format: cell-based; conditions: Enterococcus faecalis, 24 hours at 37° C., read-out: minimum inhibiting concentration (MIC)
Method: as §1

[4] = system: Streptococcus faecalis 99 F 74; test: serial dilution liquid medium MIC, Streptococcus faecalis 99 F 74; format: cell-based; conditions: Enterococcus faecalis, 99F74, 24 hours at 37° C., read-out: minimum inhibiting concentration (MIC)
Method: as §1

[5] = system: Streptococcus pyogenes A 561; test: serial dilution liquid medium MIC, Streptococcus pyogenes A 561; format: cell-based; conditions: A561, 24 hours at 37° C., read-out: minimum inhibiting concentration (MIC)
Method: as §1

[6] = system: Streptococcus faecalis 5435; test: serial dilution liquid medium MIC, Streptococcus faecalis 5435; format: cell-based; conditions: Enterococcus faecalis, 24 hours at 37° C., read-out: minimum inhibiting concentration (MIC)
Method: as §1

[7] = system: Staphylococcus aureus exp. n° 54 146; test: serial dilution liquid medium MIC, Staphylococcus aureus exp. n° 54 146; format: cell-based; conditions: Staphylococcus aureus exp. 54 146; 24 hours at 37° C.; read-out: minimum inhibiting concentration (MIC)
Method: as §1

[8] = system: Staphylococcus aureus No. 54,146; test: In vivo activity in mice experimentally infected with Staphylococcus aureus No. 54,146; conditions: groups of 10 mice
Method: The test was effected with the compounds of the invention and erythromycin as a reference on groups of 10 mice weighing about 21 g experimentally infected with Staphylococcus aureus No. 54,146 by intraperitoneal administration of 0.5 ml of a 22 hour culture of the said organism in bouillon with a pH of 7 diluted to 1/6 with physiological water. The test compounds were orally administrated to the mice 1,5 and 24 hours after the infection and the mortality on the 8th day was determined.

[9] = dose 0,5mg oral, 1,5 and 24 hours after infection
[10] = dose 0,25mg oral, 1,5 and 24 hours after infection
[11] = dose 0,75mg oral, 1,5 and 24 hours after infection

MIC [1] | MIC [2] | MIC [3] | MIC [4] | MIC [5] | MIC [6] | MIC [7] | Compound | No. of mice living on the 8th day [8, 9] | No. of mice living on the 8th day [8, 10] | No. of mice living on the 8th day [8, 11] | No. of mice living on the 8th day ([8]; dose 1mg oral, 1,5 and 24 hours after infection)
0.2 µg/mL (≈ 0.232 µM) | 0.6 µg/mL (≈ 0.696 µM) | 0.05 µg/mL (≈ 0.058 µM) | 0.05 µg/mL (≈ 0.058 µM) | ≤ 0.01 µg/mL | 0.1 µg/mL (≈ 0.116 µM) | 0.4 µg/mL (≈ 0.464 µM) | CC[C@H]1OC(=O)[C@H](C)[C@@H](O[C@H]2C[C@@](C)(OC)[C@@H](O)[C@H](C)O2)[C@H](C)[C@@H](O[C@@H]2O[C@H](C)C[C@H](N(C)C)[C@H]2O)[C@](C)(O)C[C@@H](C)C(=NOC(C)CN(CC)CC)[C@H](C)[C@@H](O)[C@]1(C)O (some centres unmarked) [Example 46, 9-[O-(2-diethylamino-isopropyl)-oxime] of erythromycin] |  |  |  | 
0.6 µg/mL (≈ 0.708 µM) | 1 µg/mL (≈ 1.18 µM) | 0.1 µg/mL (≈ 0.118 µM) | 0.2 µg/mL (≈ 0.236 µM) | 0.1 µg/mL (≈ 0.118 µM) | 0.6 µg/mL (≈ 0.708 µM) | 0.6 µg/mL (≈ 0.708 µM) | CC[C@H]1OC(=O)[C@H](C)[C@@H](O[C@H]2C[C@@](C)(OC)[C@@H](O)[C@H](C)O2)[C@H](C)[C@@H](O[C@@H]2O[C@H](C)C[C@H](N(C)C)[C@H]2O)[C@](C)(O)C[C@@H](C)C(=NOCC(=O)C(C)(C)C)[C@H](C)[C@@H](O)[C@]1(C)O [Example 15, 9-[0-(3,3-dimethyl-2-oxo-butyl)-oxime] of erythromycin] | 9 mice | 1 mice | 10 mice | 
1 µg/mL (≈ 1.14 µM) | 2 µg/mL (≈ 2.29 µM) | 0.2 µg/mL (≈ 0.229 µM) | 0.05 µg/mL (≈ 0.0571 µM) | ≤ 0.01 µg/mL | 0.4 µg/mL (≈ 0.457 µM) | 1 µg/mL (≈ 1.14 µM) | CC[C@H]1OC(=O)[C@H](C)[C@@H](O[C@H]2C[C@@](C)(OC)[C@@H](O)[C@H](C)O2)[C@H](C)[C@@H](O[C@@H]2O[C@H](C)C[C@H](N(C)C)[C@H]2O)[C@](C)(O)C[C@@H](C)C(=NOCCN2CCN(C)CC2)[C@H](C)[C@@H](O)[C@]1(C)O [Example 43, 9-[O-(2-{4-methyl-piperazino-1-yl}-ethyl)-oxime] of erythromycin] |  |  |  | 
0.4 µg/mL (≈ 0.471 µM) | 0.6 µg/mL (≈ 0.706 µM) | 0.05 µg/mL (≈ 0.0588 µM) | 0.05 µg/mL (≈ 0.0588 µM) | ≤ 0.01 µg/mL | 0.2 µg/mL (≈ 0.235 µM) | 0.4 µg/mL (≈ 0.471 µM) | CC[C@H]1OC(=O)[C@H](C)[C@@H](O[C@H]2C[C@@](C)(OC)[C@@H](O)[C@H](C)O2)[C@H](C)[C@@H](O[C@@H]2O[C@H](C)C[C@H](N(C)C)[C@H]2O)[C@](C)(O)C[C@@H](C)C(=NOCOCCN(C)C)[C@H](C)[C@@H](O)[C@]1(C)O [Example 22, 9-[0-{(2-dimethylaminoethoxy)-methyl}-oxime] of erythromycin] |  |  |  | 
0.4 µg/mL (≈ 0.478 µM) | 1 µg/mL (≈ 1.19 µM) | 0.4 µg/mL (≈ 0.478 µM) | 0.2 µg/mL (≈ 0.239 µM) | 0.1 µg/mL (≈ 0.119 µM) | 1 µg/mL (≈ 1.19 µM) | 0.4 µg/mL (≈ 0.478 µM) | CC[C@H]1OC(=O)[C@H](C)[C@@H](O[C@H]2C[C@@](C)(OC)[C@@H](O)[C@H](C)O2)[C@H](C)[C@@H](O[C@@H]2O[C@H](C)C[C@H](N(C)C)[C@H]2O)[C@](C)(O)C[C@@H](C)C(=NOCC(OC)OC)[C@H](C)[C@@H](O)[C@]1(C)O [Example 29, 9-[0-(2,2-dimethoxyethyl)-oxime] of erythromycin] | 8 mice | 2 mice | 9 mice | 10 mice
0.4 µg/mL (≈ 0.473 µM) | 1 µg/mL (≈ 1.18 µM) | 0.05 µg/mL (≈ 0.0591 µM) | 0.1 µg/mL (≈ 0.118 µM) | ≤ 0.01 µg/mL | 0.2 µg/mL (≈ 0.236 µM) | 0.6 µg/mL (≈ 0.709 µM) | CC[C@H]1OC(=O)[C@H](C)[C@@H](O[C@H]2C[C@@](C)(OC)[C@@H](O)[C@H](C)O2)[C@H](C)[C@@H](O[C@@H]2O[C@H](C)C[C@H](N(C)C)[C@H]2O)[C@](C)(O)C[C@@H](C)C(=NOCCN2CCCC2)[C@H](C)[C@@H](O)[C@]1(C)O [Example 32, 9-[0-(2-{pyrrolidin-1-yl}-ethyl)-oxime] of erythromycin] |  |  |  | 
0.4 µg/mL (≈ 0.456 µM) | 1 µg/mL (≈ 1.14 µM) | 0.1 µg/mL (≈ 0.114 µM) | 0.1 µg/mL (≈ 0.114 µM) | 0.02 µg/mL (≈ 0.0228 µM) | 0.2 µg/mL (≈ 0.228 µM) | 0.6 µg/mL (≈ 0.683 µM) | CC[C@H]1OC(=O)[C@H](C)[C@@H](O[C@H]2C[C@@](C)(OC)[C@@H](O)[C@H](C)O2)[C@H](C)[C@@H](O[C@@H]2O[C@H](C)C[C@H](N(C)C)[C@H]2O)[C@](C)(O)C[C@@H](C)C(=NOCOCCN(CC)CC)[C@H](C)[C@@H](O)[C@]1(C)O [Example 23, 9-[0-{(2-diethylaminoethoxy)-methyl}-oxime] of erythromycin] |  |  |  | 
